One compound from PMC3408453, “A Foldamer-Dendrimer Conjugate Neutralizes Synaptotoxic β-Amyloid Oligomers” (PLoS ONE, 2012) can be followed below.

Data set [1] concerns the target T1, LMW fraction of Aβ oligomers (Homo sapiens, UniProt P05067).
T1 construct: a depsipeptide derivative of Aβ(1–42) was utilized; made in house; host or cells: chemical peptide synthesis (no expression host)
Put plainly: Concentration-dependent dot blot with SEC-separated LMW Aβ oligomer fraction. The note with it: 10 µg ligand spotted, BAM10 1∶500. The data set is classed as binding. The procedure: ITC measurement for 7 indicated fractional stoichiometry for the low nM binding, which pointed to that the high affinity interaction involves only a fraction of the oligomeric Aβ sample. To localize the strongly binding fraction in the mixture, size exclusion chromatographic (SEC) separation was carried out and the resulting Aβ oligomer fractions were tested with 7 in concentration-dependent dot blot experiments. Two dominant peaks were found in the SEC chromatogram corresponding to the high molecular weight (HMW) and low molecular weight (LMW) components (Figure 7). […] In control experiments, specific and/or preferential binding of Aβ by the membrane itself were ruled out. These findings were in line with the ITC and ELISA results. It could be concluded that 7 preferentially bound to the LMW fraction at low nM concentration and also interacted with the HMW fraction at sub-µM level.
Figure 7 Selective binding to the LMW Aβ oligomers in the nM range. Size exclusion chromatographic separation of the HMW and LMW fractions of the Aβ oligomeric sample (top panel). Concentration-dependent dot blot experiments performed with the HMW (A) and the LMW fractions (B). The ligand loadings were 10 µg aliquots of 7, and the sequence specific antibody BAM10 (1∶500) was utilized. Lanes within the panels are parallel experiments. […]

In a further data set the target is T2, Aβ oligomers (Homo sapiens, UniProt P05067).
T2 construct: a depsipeptide derivative of Aβ(1–42) was utilized; made in house; host or cells: chemical peptide synthesis (no expression host)
T2 sequence (P05067 672-713 limits assumed): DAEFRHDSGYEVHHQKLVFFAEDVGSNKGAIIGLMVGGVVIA
Put plainly: Precipitation study at 1 µM Aβ oligomer, supernatant Aβ by ELISA. Particulars: 1 µM Aβ oligomer, 0.2, 0.5 and 1.0 equivalents of ligand, 15000× g, 3 h. The procedure:
The extent of precipitation was also tested at an Aβ oligomer concentration of 1 µM. The Aβ oligomer sample was mixed with 0, 0.2, 0.5 and 1.0 equivalents of 7, centrifuged at 15000× g for 3 h and the supernatant was tested for residual Aβ concentration by using a standard ELISA (Figure 11).
Aβ concentrations determined by ELISA in supernatants obtained from samples containing 1 µM Aβ oligomer mixed with 0, 0.2, 0.5 and 1.0 equivalents of 7 and centrifuged at 15000×g (room temperature, 3 h).
1 μM solution of the Aβ oligomer sample was prepared. This solution was divided to 4×15 ml fractions and 7 was added to three samples in 1, 0.5 or 0.2 μM final concentration, respectively. All the four samples were divided into […] (2×5 ml). One fraction from each sample was centrifuged at 15000×g at RT for 3 hours in a Roth MIKRO 200 Microcentrifuge (Carl-Roth GmbH Karlsruhe, Germany) centrifuge. […]
Different amounts of Aβ (0.0001, 0.0003, 0.001, 0.003, 0.01, 0.03, 0.1, 0.3 µg pro well) were coated in the wells (6 parallels for each concentration) of a 96 well plate. […] Without using a stopping reagent, the absorbance at 370 nm was constantly monitored using a FLUOstar OPTIMA Multidetection Microplate Reader (BMG LABTECH, Offenburg, Germany). Data values were read at the saturation point of the signal curves. The supernatants were analysed according to the concentration calibration.
(An ELISA detects its analyte on a solid surface through an enzyme-linked reagent.)

T1 sequence (P05067 672-713 limits assumed): as above

For `N=C(N)NCCC[C@@H](CC(=O)N[C@H]1CCCC[C@@H]1C(=O)N[C@H]1CCCC[C@@H]1C(=O)N[C@@H](CC(=O)O)CC(=O)N[C@H]1CCCC[C@@H]1C(=O)NCC(=O)NCC(=O)N[C@@H](CSC1CC(=O)N(CCC(=O)NCCNC(=O)CCN(CCC(=O)NCCNC(=O)CCN2C(=O)CC(SC[C@H](NC(=O)CNC(=O)CNC(=O)[C@H]3CCCC[C@@H]3NC(=O)C[C@H](CC(=O)O)NC(=O)[C@H]3CCCC[C@@H]3NC(=O)[C@H]3CCCC[C@@H]3NC(=O)C[C@H](CCCNC(=N)N)NC(=O)[C@H]3CCCC[C@@H]3N)C(N)=O)C2=O)CCN(CCC(=O)NCCNC(=O)CCN2C(=O)CC(SC[C@H](NC(=O)CNC(=O)CNC(=O)[C@H]3CCCC[C@@H]3NC(=O)C[C@H](CC(=O)O)NC(=O)[C@H]3CCCC[C@@H]3NC(=O)[C@H]3CCCC[C@@H]3NC(=O)C[C@H](CCCNC(=N)N)NC(=O)[C@H]3CCCC[C@@H]3N)C(N)=O)C2=O)CCC(=O)NCCNC(=O)CCN2C(=O)CC(SC[C@H](NC(=O)CNC(=O)CNC(=O)[C@H]3CCCC[C@@H]3NC(=O)C[C@H](CC(=O)O)NC(=O)[C@H]3CCCC[C@@H]3NC(=O)[C@H]3CCCC[C@@H]3NC(=O)C[C@H](CCCNC(=N)N)NC(=O)[C@H]3CCCC[C@@H]3N)C(N)=O)C2=O)C1=O)C(N)=O)NC(=O)[C@H]1CCCC[C@@H]1N` (some centres unmarked) [Compound 7], the “Dot blot binding of LMW Aβ oligomer fraction” value in data set [1] is on record as “saturation of binding in the low nanomolar region”. Further, the “Loss of soluble Aβ after centrifugation (supernatant ELISA)” value at Aβ oligomers was “no significant loss of soluble material”.
